Consider 22 compounds from US8603947B2, “(4-haloalkyl-3-thiobenzoyl)cyclohexanediones and use thereof as herbicides” (Bayer Cropscience AG, priority 2010, dated 2013).

What all share (format): in vivo
Experiment [1] concerns Matricaria inodora (MATIN). Nature of the experiment: Pre-emergence herbicidal action against weed plants. Particulars: dose 320 g a.c./ha, scored after 3 to 4 weeks, Comparison Table 4. The text has this: (§1) 1. Pre-emergence Herbicidal Action Against Weed Plants Seeds or rhizome sections of mono- and dicotyledonous weed plants are set out in pots of 9 to 13 cm in diameter, in sandy loam soil, and are covered with soil. The herbicides, formulated as emulsifiable concentrates or dusts, are applied to the surface of the covering earth in the form of aqueous dispersions or suspensions or emulsions, at a water application rate of 300 to 800 l/ha (converted). The pots are then maintained under glass under optimum conditions for the further cultivation of the plants. After 3 to 4 weeks under optimum growth conditions under glass, the trial plants are scored for the effect of the compounds according to the invention in comparison to compounds disclosed in the prior art. […] [table]

A further experiment deals with Avena fatua (AVEFA). The description is as above. The conditions noted are these: dose 320 g a.c./ha, scored after 3 to 4 weeks, Comparison Table 4.
From the text: as §1

For experiment [2], the system named is Pharbitis purpureum (PHBPU). The experiment is described as above. Particulars: scored after 3 to 4 weeks.
From the text: as §1

Experiment [3] has as its system Viola tricolor (VIOTR). The experiment is described as above. The conditions noted are these: scored after 3 to 4 weeks.
From the text: as §1

The test system of experiment [4] is Matricaria inodora (MATIN). Put plainly: Post-emergence herbicidal action against weed plants. Particulars: dose 80 g a.c./ha, scored after 3 to 4 weeks. Here is the method:
(§2) [table] 2. Post-emergence Herbicidal Action Against Weed Plants Seeds of monocotyledonous and dicotyledonous weed plants are set out in cardboard pots in sandy loam soil, covered with soil, and cultivated under glass under good growth conditions. Two to three weeks after sowing, the trial plants are treated at the three-leaf stage. The compounds according to the invention, formulated as wettable powders or as emulsifiable concentrates, are sprayed onto the surface of the green parts of the plants, at a water application rate of 600 to 800 l/ha (converted). After the trial plants have stood for 3 to 4 weeks under optimum growth conditions under glass, the action of the compounds according to the invention is scored in comparison to compounds disclosed in the prior art.

The test system of experiment [5] is Echinochloa crus galli (ECHCG). The experiment is described as above. The conditions noted are these: dose 80 g a.c./ha, scored after 3 to 4 weeks. The method, then:
as §2

The test system of experiment [6] is Pharbitis purpureum (PHBPU). The description is as above. The conditions noted are these: scored after 3 to 4 weeks. Here is the method: as §2
In experiment [7] the test system is Alopecurus myosuroides (ALOMY). The description is as above. Particulars: scored after 3 to 4 weeks. Here is the method: as §2
The subject of experiment [8] is Viola tricolor (VIOTR). Described as above. Particulars: dose 80 g a.c./ha, scored after 3 to 4 weeks, Comparison Table 11. Here is the method: as §2
Experiment [9] relates to Setaria viridis (SETVI). The experiment is described as above. The conditions noted are these: dose 80 g a.c./ha, scored after 3 to 4 weeks, Comparison Table 11. Here is the method: as §2
Experiment [10] has as its system Amaranthus retroflexus (AMARE). Described as above. Particulars: dose 80 g a.c./ha, scored after 3 to 4 weeks, Comparison Table 8. Here is the method:
as §2

In experiment [11] the test system is Setaria viridis (SETVI). Nature of the experiment: Pre-emergence herbicidal action against weed plants. The conditions noted are these: dose 80 g a.c./ha, scored after 3 to 4 weeks, Comparison Table 5.
From the text: as §1

Setting [12] is: dose 320 g a.c./ha, Comparison Table 4.
Setting [13] is: dose 320 g a.c./ha, Comparison Table 1.
[14] abbreviates: dose 80 g a.c./ha, Comparison Table 9.
Setting [15] is: dose 80 g a.c./ha, Comparison Table 2.
The mark [16] stands for this setting: dose 80 g a.c./ha, Comparison Table 10.
[17] abbreviates: dose 80 g a.c./ha, Comparison Table 6.
The mark [18] stands for this setting: dose 80 g a.i./ha, Comparison Table 7.
Setting [19] is: dose 320 g a.c./ha, Comparison Table 3.
Where [20] appears, read: dose 80 g a.c./ha, Comparison Table 11.
The mark [21] stands for this setting: dose 80 g a.c./ha, Comparison Table 8.
Setting [22] is: dose 80 g a.c./ha, Comparison Table 5.

`Cc1c(C(=O)C2C(=O)C3CCC(C3)C2=O)ccc(C(F)(F)C(F)(F)F)c1S(C)(=O)=O` (stereo not drawn) [drawing 19]: the “Herbicidal action against MATIN” value in experiment [1] is 100%. Also, in the experiment on Avena fatua (AVEFA), the “Herbicidal action against AVEFA” value is recorded as 80%. Also, the “Herbicidal action against PHBPU” value in experiment [2] (setting [12]) worked out at 90%.
Regarding `Cc1c(C(=O)C2C(=O)C3CCC(C3)C2=O)ccc(C(F)(F)C(F)(F)F)c1[S+](C)[O-]` (stereo not drawn) [drawing 13], the “Herbicidal action against VIOTR” value in the experiment with Viola tricolor (VIOTR) [3] (setting [13]) is 100%. Also, in experiment [2] (setting [13]), the “Herbicidal action against PHBPU” value was 90%.
As for `Cc1c(C(=O)C2C(=O)C3CCC(C3)C2=O)ccc(C(F)(F)C(F)(F)F)c1S(C)(=O)=O` (stereo not drawn) [drawing 29], in experiment [4] (Comparison Table 9), the “Herbicidal action against MATIN” value worked out at 100%. For the same compound, the “Herbicidal action against ECHCG” value in experiment [5] (Comparison Table 9) came out at 100%. Moreover, the “Herbicidal action against PHBPU” value in [6] (setting [14]) stood at 90%.
On to `CCn1ncc(C(=O)c2ccc(C(F)(F)F)c([S+](C)[O-])c2C)c1O` (stereo not drawn), for which the “Herbicidal action against VIOTR” value with Viola tricolor (VIOTR) [3] (setting [15]) came out at 50%. Further, the “Herbicidal action against PHBPU” value in experiment [2] (setting [15]) came to 0%.
Turning to `CCn1ncc(C(=O)c2ccc(C(F)(F)F)c(S(C)(=O)=O)c2C)c1O` [drawing 20], the “Herbicidal action against MATIN” value in experiment [1] came to 90%. Further, the “Herbicidal action against AVEFA” value in the experiment on Avena fatua (AVEFA) was 40%. The “Herbicidal action against PHBPU” value in experiment [2] (setting [12]) is given as 50%.
In the case of `CCn1ncc(C(=O)c2ccc(C(F)(F)F)c(S(C)(=O)=O)c2C)c1O` [drawing 32], the “Herbicidal action against MATIN” value in experiment [4] (Comparison Table 10) turned out to be 90%. Moreover, the “Herbicidal action against ECHCG” value in experiment [5] (Comparison Table 10) was 90%. Besides, in experiment [6] (setting [16]), the “Herbicidal action against PHBPU” value came to 40%.
Take `Cc1c(C(=O)C2C(=O)C3CCC(C3)C2=O)ccc(C(F)(F)C(F)(F)F)c1[S+](C)[O-]` (stereo not drawn) [drawing 23]: the “Herbicidal action against ALOMY” value in experiment [7] (setting [17]) was 90%. For the same compound, in experiment [6] (setting [17]), the “Herbicidal action against PHBPU” value worked out at 100%.
For the compound `Cc1c(C(=O)C2C(=O)C3CCC(C3)C2=O)ccc(C(F)(F)C(F)(F)F)c1[S+](C)[O-]` (stereo not drawn) [drawing 25], the “Herbicidal action against ALOMY” value in experiment [7] (setting [18]) was determined as 90%. Also, the “Herbicidal action against PHBPU” value in [6] (setting [18]) came to 100%.
For `Cc1c(C(=O)c2cnn(C)c2O)ccc(C(F)(F)F)c1S(C)(=O)=O` [drawing 30], in [4] (Comparison Table 9), the “Herbicidal action against MATIN” value was found to be 55%. The “Herbicidal action against ECHCG” value in [5] (Comparison Table 9) amounted to 95%. Moreover, the “Herbicidal action against PHBPU” value in experiment [6] (setting [14]) came out at 80%.
Consider `Cc1nn(C)c(O)c1C(=O)c1ccc(C(F)(F)F)c([S+](C)[O-])c1C` (stereo not drawn) [drawing 18], for which the “Herbicidal action against VIOTR” value with Viola tricolor (VIOTR) [3] (setting [19]) amounted to 40%. Besides, the “Herbicidal action against PHBPU” value in [2] (setting [19]) turned out to be 60%.
Consider `Cc1c(C(=O)c2cnn(C)c2O)ccc(C(F)(F)F)c1[S+](C)[O-]` (stereo not drawn) [drawing 14], for which the “Herbicidal action against VIOTR” value in the experiment with Viola tricolor (VIOTR) [3] (setting [13]) was determined as 90%. Further, in experiment [2] (setting [13]), the “Herbicidal action against PHBPU” value is recorded as 50%.
`Cc1nn(C)c(O)c1C(=O)c1ccc(C(F)(F)F)c(S(C)(=O)=O)c1C`: in the experiment with Viola tricolor (VIOTR) [8], the “Herbicidal action against VIOTR” value is 80%. Moreover, the “Herbicidal action against SETVI” value with Setaria viridis (SETVI) [9] worked out at 60%. Also, the “Herbicidal action against PHBPU” value in [6] (setting [20]) is 80%.
In the case of `Cc1c(C(=O)C2C(=O)C3CCC(C3)C2=O)ccc(C(F)(F)C(F)(F)F)c1[S+](C)[O-]` (stereo not drawn) [drawing 27], in experiment [7] (setting [21]), the “Herbicidal action against ALOMY” value worked out at 90%. Also, the “Herbicidal action against PHBPU” value in experiment [6] (setting [21]) was found to be 100%. Besides, the “Herbicidal action against AMARE” value in [10] was found to be 100%.
With `Cc1c(C(=O)C2C(=O)C3CCC(C3)C2=O)ccc(C(F)(F)C(F)(F)F)c1[S+](C)[O-]` (stereo not drawn) [drawing 15], in the experiment on Viola tricolor (VIOTR) [3] (setting [15]), the “Herbicidal action against VIOTR” value turned out to be 100%. Further, the “Herbicidal action against PHBPU” value in experiment [2] (setting [15]) was 80%.
On to `Cc1c(C(=O)c2cnn(C)c2O)ccc(C(F)(F)F)c1[S+](C)[O-]` (stereo not drawn) [drawing 26], for which the “Herbicidal action against ALOMY” value in experiment [7] (setting [18]) was 60%. Further, the “Herbicidal action against PHBPU” value in experiment [6] (setting [18]) came out at 80%.
In the case of `Cc1c(C(=O)c2cnn(C)c2O)ccc(C(F)(F)F)c1[S+](C)[O-]` (stereo not drawn) [drawing 24], the “Herbicidal action against ALOMY” value in experiment [7] (setting [17]) came to 60%. The “Herbicidal action against PHBPU” value in [6] (setting [17]) amounted to 60%.
With `Cc1c(C(=O)C2C(=O)C3CCC(C3)C2=O)ccc(C(F)(F)C(F)(F)F)c1S(C)(=O)=O` (stereo not drawn) [drawing 31], in experiment [4] (Comparison Table 10), the “Herbicidal action against MATIN” value worked out at 100%. In addition, in [5] (Comparison Table 10), the “Herbicidal action against ECHCG” value amounted to 100%. Besides, the “Herbicidal action against PHBPU” value in experiment [6] (setting [16]) is given as 90%.
For the compound `Cc1c(C(=O)C2C(=O)C3CCC(C3)C2=O)ccc(C(F)(F)C(F)(F)F)c1[S+](C)[O-]` (stereo not drawn) [drawing 17], the “Herbicidal action against VIOTR” value with Viola tricolor (VIOTR) [3] (setting [19]) was 100%. Further, the “Herbicidal action against PHBPU” value in experiment [2] (setting [19]) is reported as 90%.
With `Cc1c(C(=O)C2C(=O)C3CCC(C3)C2=O)ccc(C(F)(F)C(F)(F)F)c1S(C)(=O)=O` (stereo not drawn) [drawing 21], the “Herbicidal action against VIOTR” value with Viola tricolor (VIOTR) [3] (setting [22]) came to 100%. Further, the “Herbicidal action against SETVI” value with Setaria viridis (SETVI) [11] was determined as 100%.
`Cc1c(C(=O)C2C(=O)C3CCC(C3)C2=O)ccc(C(F)(F)C(F)(F)F)c1S(C)(=O)=O` (stereo not drawn) [drawing 33]: the “Herbicidal action against VIOTR” value with Viola tricolor (VIOTR) [8] is given as 100%. For the same compound, in the experiment on Setaria viridis (SETVI) [9], the “Herbicidal action against SETVI” value was found to be 100%. For the same compound, the “Herbicidal action against PHBPU” value in experiment [6] (setting [20]) is given as 90%.
Turning to `Cc1c(C(=O)c2cnn(C)c2O)ccc(C(F)(F)F)c1S(C)(=O)=O` [drawing 22], in the experiment with Viola tricolor (VIOTR) [3] (setting [22]), the “Herbicidal action against VIOTR” value came out at 50%. Further, in the experiment on Setaria viridis (SETVI) [11], the “Herbicidal action against SETVI” value was 60%.
With `Cc1nn(C)c(O)c1C(=O)c1ccc(C(F)(F)F)c([S+](C)[O-])c1C` (stereo not drawn) [drawing 28], in [7] (setting [21]), the “Herbicidal action against ALOMY” value is recorded as 30%. Also, the “Herbicidal action against PHBPU” value in [6] (setting [21]) turned out to be 50%. The “Herbicidal action against AMARE” value in [10] turned out to be 50%.
